Reference: patent publication US20100255580A1, “Differentiation of Human Embryonic Stem Cells” (LIFESCCAN, INC., priority 2007, published 2010)
Several values for one entry are separate records, joined by “and”; a condition that tells them apart may be missing. Equal entries are not always repeated.

Tested on: human embryonic stem cell line H9
Experiment: Cytokine array analysis of cell lysates and conditioned media
Format: cell-based
Design: key to BMP-4 expression / BMP-6 expression / EGF expression / FGF-6 expression / Fractalkine expression / GCP-2 expression / IL-3 expression / IL-4 expression / IL-6 expression / M-CSF expression / MIG expression / Amphiregulin expression: cytokine array signal, normalized and background-subtracted
Experimental: The effect that Wnt-3a treatment has on cytokine expression was analyzed using a protein array. Cells of the human embryonic stem cell line H9 were cultured according to the methods described in Example 15. At passage 54, cells were differentiated in the presence of 100 ng/ml ActivinA+/−10 ng/ml Wnt3a for 2 days in 0.5% FBS DMEM/F12. Cells were subsequently cultured for an additional three days in 100 ng/mlActivin A and 2% FBS DMEM/F12. At the end of the 5th day, CXCR4 expression was determined by FACS for each treatment group.
Cell lysates were prepared from cells of each treatment group, with a mammalian cell lysis kit (Sigma-Aldrich, MO). Conditioned media from each treatment group was collected and concentrated. Cytokine array analysis was completed using Cytokine Array panels provided by RayBiotech, GA (http://www.raybiotech.com/). Table VII lists cytokine, growth factor, and receptor expression following normalization of the data and background subtraction. For each panel, positive and negative controls are also included. Th data shown are two independent samples per cell treatment group (1,2).

With Wnt-3a the 1L-1beta expression (Cell conditioned media) was 316.59 and 278.30, the 1L-1ra expression (Cell conditioned media) was 354.23 and 581.75 and the Acrp30 expression (Cell conditioned media) was 2,795.71 and 2,302.99. The AgRP expression (Cell conditioned media) was 651.26 and 482.21, the Amphiregulin expression (Cell conditioned media) was 619.07 and 782.60 and the Angiogenin expression (Cell conditioned media) was 57,442.48 and 54,969.04. The Angiopoietin-2 expression (Cell conditioned media) was 65,959.24 and 71,664.21, the AxI expression (Cell conditioned media) was 610.40 and 748.34 and the BDNF expression (Cell conditioned media) was 770.08 and 715.86. The BLC expression (Cell conditioned media) was 337.12 and 249.80, the BMP-6 expression (Cell conditioned media) was 985.70 and 670.60 and the “CK beta 8-1 expression” value (Cell conditioned media) was 42.78 and 75.44. The CNTF expression (Cell conditioned media) was 787.19 and 541.51, the EGF expression (Cell conditioned media) was 23,331.57 and 22,768.53 and the Eotaxin-2 expression (Cell conditioned media) was 2,156.21 and 1,445.14. The Eotaxin-3 expression (Cell conditioned media) was 2,140.81 and 1,480.35, the FGF-6 expression (Cell conditioned media) was 3,283.94 and 2,519.78 and the “Flt-3 Ligand expression” value (Cell conditioned media) was 511.67 and 792.98. For the same substance, the Fractalkine expression (Cell conditioned media) was 359.37 and 367.15, the GCP-2 expression (Cell conditioned media) was 451.78 and 362.12 and the GDNF expression (Cell conditioned media) was 443.22 and 509.66. The GM-CSF expression (Cell conditioned media) was 1,808.82 and 1,446.82, the I-309 expression (Cell conditioned media) was 318.30 and 288.36 and the IFN-gamma expression (Cell conditioned media) was 1,238.97 and 1,435.08. For the same substance, the IGF-I expression (Cell conditioned media) was 254.98 and 187.77, the IGFBP-1 expression (Cell conditioned media) was 227.60 and 155.91 and the IGFBP-2 expression (Cell conditioned media) was 42,215.53 and 43,934.33. The IGFBP-4 expression (Cell conditioned media) was 18,988.34 and 13,380.14, the IL-1alpha expression (Cell conditioned media) was 3,999.26 and 3,545.79 and the IL-2 expression (Cell conditioned media) was 758.10 and 881.84. For the same substance, the IL-3 expression (Cell conditioned media) was 11,345.78 and 12,174.73, the IL-4 expression (Cell conditioned media) was 804.30 and 673.95 and the IL-5 expression (Cell conditioned media) was 2,120.27 and 1,713.38. For the same substance, the IL-6 expression (Cell conditioned media) was 9,774.82 and 9,991.93, the IL-10 expression (Cell conditioned media) was 1,625.71 and 1,129.96 and the IL-13 expression (Cell conditioned media) was 2,522.42 and 1,807.27. For the same substance, the IL-15 expression (Cell conditioned media) was 2,495.04 and 1,981.62, the IL-16 expression (Cell conditioned media) was 436.38 and 405.71 and the LIGHT expression (Cell conditioned media) was 1,346.78 and 1,108.17. For the same substance, the Leptin expression (Cell conditioned media) was 7,238.71 and 4,886.99, the M-CSF expression (Cell conditioned media) was 740.98 and 684.01 and the MCP-1 expression (Cell conditioned media) was 2,015.89 and 1,567.53. The MCP-2 expression (Cell conditioned media) was 694.78 and 694.07, the MCP-3 expression (Cell conditioned media) was 701.62 and 583.42 and the MCP-4 expression (Cell conditioned media) was 231.02 and 276.62. The MIP-1-delta expression (Cell conditioned media) was 474.02 and 291.71, the MIP-3-alpha expression (Cell conditioned media) was 208.78 and 184.41 and the NAP-2 expression (Cell conditioned media) was 371.35 and 343.68. For the same substance, the NT-3 expression (Cell conditioned media) was 571.57 and 427.51, the PARC expression (Cell conditioned media) was 474.02 and 363.80 and the PDGF-BB expression (Cell conditioned media) was 2,635.37 and 2,005.09. For the same substance, the RANTES expression (Cell conditioned media) was 682.80 and 855.01, the SCF expression (Cell conditioned media) was 1,394.69 and 2,155.98 and the SDF-1 expression (Cell conditioned media) was 326.85 and 616.95. For the same substance, the “TGF-beta 1 expression” value (Cell conditioned media) was 1,827.65 and 1,849.18, the “TGF-beta 3 expression” value (Cell conditioned media) was 294.34 and 343.68 and the TNF-alpha expression (Cell conditioned media) was 2,609.70 and 2,167.71. For the same substance, the TNF-beta expression (Cell conditioned media) was 1,701.01 and 1,637.94, the bFGF expression (Cell conditioned media) was 1,226.99 and 1,241.09 and the 1L-1beta expression (Cell lysate) was 352.05 and 312.08. The 1L-1ra expression (Cell lysate) was 302.68 and 198.48, the Acrp30 expression (Cell lysate) was 601.61 and 690.66 and the AgRP expression (Cell lysate) was 77.82 and 89.00. For the same substance, the Angiogenin expression (Cell lysate) was 619.40 and 750.85, the AxI expression (Cell lysate) was 88.59 and 139.03 and the BDNF expression (Cell lysate) was 763.51 and 951.45. For the same substance, the BLC expression (Cell lysate) was 742.24 and 476.36, the BMP-4 expression (Cell lysate) was 348.44 and 304.48 and the BMP-6 expression (Cell lysate) was 571.23 and 641.05. For the same substance, the “CK beta 8-1 expression” value (Cell lysate) was 22.48 and 21.54, the CNTF expression (Cell lysate) was 1,382.51 and 1,060.82 and the EGF expression (Cell lysate) was 742.24 and 984.39. The Eotaxin expression (Cell lysate) was 301.87 and 253.80, the Eotaxin-3 expression (Cell lysate) was 934.12 and 847.56 and the “Flt-3 Ligand expression” value (Cell lysate) was 857.45 and 795.19. For the same substance, the Fractalkine expression (Cell lysate) was 792.02 and 456.51, the GCP-2 expression (Cell lysate) was 593.71 and 538.86 and the GDNF expression (Cell lysate) was 436.75 and 444.68. For the same substance, the GM-CSF expression (Cell lysate) was 1,343.17 and 1,161.75, the I-309 expression (Cell lysate) was 708.52 and 743.25 and the IFN-gamma expression (Cell lysate) was 1,202.67 and 1,037.60. The IGFBP-1 expression (Cell lysate) was 59.41 and 85.73, the IGFBP-2 expression (Cell lysate) was 2,671.90 and 2,414.72 and the IGFBP-4 expression (Cell lysate) was 4,459.85 and 4,173.19. For the same substance, the IL-1alpha expression (Cell lysate) was 1,612.93 and 1,421.89, the IL-3 expression (Cell lysate) was 2,119.94 and 1,497.48 and the IL-4 expression (Cell lysate) was 625.42 and 638.94. The IL-5 expression (Cell lysate) was 1,245.23 and 1,167.24, the IL-10 expression (Cell lysate) was 1,222.75 and 1,096.30 and the IL-13 expression (Cell lysate) was 1,486.89 and 1,407.96. The IL-15 expression (Cell lysate) was 1,677.16 and 1,601.79, the IL-16 expression (Cell lysate) was 651.11 and 668.50 and the Leptin expression (Cell lysate) was 1,234.39 and 1,091.65. The M-CSF expression (Cell lysate) was 852.63 and 867.83, the MCP-1 expression (Cell lysate) was 1,022.03 and 1,076.03 and the MCP-3 expression (Cell lysate) was 1,184.61 and 1,255.50. The MCP-4 expression (Cell lysate) was 1,380.51 and 1,606.86, the MDC expression (Cell lysate) was 269.36 and 280.41 and the MIG expression (Cell lysate) was 1,113.16 and 1,137.26. The MIP-1-delta expression (Cell lysate) was 491.75 and 322.22, the MIP-3-alpha expression (Cell lysate) was 1,602.09 and 1,399.93 and the NT-3 expression (Cell lysate) was 316.73 and 275.76. The PARC expression (Cell lysate) was 352.85 and 353.04, the PDGF-BB expression (Cell lysate) was 517.84 and 597.56 and the RANTES expression (Cell lysate) was 724.98 and 637.25. For the same substance, the SCF expression (Cell lysate) was 1,152.50 and 1,021.13, the TARC expression (Cell lysate) was 372.93 and 343.33 and the “TGF-beta 1 expression” value (Cell lysate) was 1,426.67 and 1,240.30. For the same substance, the TNF-alpha expression (Cell lysate) was 2,851.74 and 1,285.91, the TNF-beta expression (Cell lysate) was 1,049.33 and 1,026.62 and the bFGF expression (Cell lysate) was 11,722.95 and 21,398.52. For the same substance, the “IGFBP-1, TGFbeta-1 and TGFbeta-3 in cell lysates” value (Wnt3a treated vs Activin A only) was “upregulated” and the “Angiogenin, IGFBP-1 and EGF in cell conditioned media” value (Wnt3 treated vs Activin A only) was “Noticeable upregulation”.
